Here are results for 13 compounds from ChEMBL document CHEMBL3580572, “Synthesis of mixed opioid affinity cyclic endomorphin-2 analogues with fluorinated phenylalanines” (ACS Med Chem Lett, 2015).

Activity calls are given as the source filed them. The rule behind the calls is not given here. Where a SMILES comes first, the peptide text is derived from it. Bridges are numbered along the chain shown (N, C = ends). [ ]: non-standard residue; d: D form. Phe(4-CF3) = N[C@@H](Cc1ccc(C(F)(F)F)cc1)C(=O)O; Dmt = Cc1cc(O)cc(C)c1C[C@H](N)C(=O)O A value given as a limit tells only on which side of the number the result lay.

A short description of data set [1]: Metabolic stability in rat brain homogenates assessed as enzymatic degradation by measuring compound remaining at 0.5 mM after 90 mins by RP-HPLC analysis. It is filed as ADME, tissue-based. As to conditions: brain homogenate, read-out: Stability.
In data set [2] the target is T1, Delta-type opioid receptor (Homo sapiens, UniProt P41143). As to the kind of experiment: Agonist activity at human recombinant delta opioid receptor expressed in CHO cells co-expressing Galphaq66Di5 assessed as stimulation of calcium release by Fluo-4 AM dye-based fluorescence assay. It is filed as functional, cell-based.
T1 sequence (P41143 whole entry): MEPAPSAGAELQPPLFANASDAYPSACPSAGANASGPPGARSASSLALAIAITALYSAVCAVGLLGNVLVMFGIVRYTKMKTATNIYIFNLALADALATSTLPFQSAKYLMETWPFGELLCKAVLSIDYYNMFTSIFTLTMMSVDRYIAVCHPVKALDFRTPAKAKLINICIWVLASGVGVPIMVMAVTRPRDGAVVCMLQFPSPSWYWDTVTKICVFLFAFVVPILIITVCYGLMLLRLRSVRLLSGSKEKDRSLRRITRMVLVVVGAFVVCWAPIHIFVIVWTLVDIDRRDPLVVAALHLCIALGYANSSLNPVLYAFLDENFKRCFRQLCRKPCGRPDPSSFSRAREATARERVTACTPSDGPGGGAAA
Data set [3] addresses T2, Mu-type opioid receptor (Homo sapiens, UniProt P35372). As to the kind of experiment: Agonist activity at human recombinant mu opioid receptor expressed in CHO cells co-expressing C-terminally modified GGalphaqi5 assessed as stimulation of calcium release by Fluo-4 AM dye-based fluorescence assay. In kind it is functional, cell-based.
Data set [4] concerns the target T3, Kappa-type opioid receptor (Homo sapiens, UniProt P41145). As to the kind of experiment: Intrinsic activity at human recombinant kappa opioid receptor expressed in CHO cells co-expressing C-terminally modified Galphaqi5 assessed as efficacy ratio by measuring stimulation of calcium release by Fluo-4 AM dye-based fluorescence assay relative to dynorphin-A. In kind it is functional, cell-based.

Data set [5] addresses T3, Kappa-type opioid receptor. As to the kind of experiment: Agonist activity at human recombinant kappa opioid receptor expressed in CHO cells co-expressing C-terminally modified Galphaqi5 assessed as stimulation of calcium release by Fluo-4 AM dye-based fluorescence assay. In kind it is functional, cell-based.
Data set [6] concerns Mus musculus. As to the kind of experiment: Antinociceptive activity in CD1 mouse assessed as inhibition of jumping behavior at 100 ng, icv after 10 mins by hot plate assay in presence of kappa opioid receptor antagonist nor-BNI. It is filed as functional, organism-based. On the technique in general: Thermal pain tests record how soon the animal reacts.
Data set [7] concerns the target Delta-type opioid receptor (Rattus norvegicus, UniProt P33533). As to the kind of experiment: Displacement of [3H][Ile5,6]deltorphin-2 from delta opioid receptor in Wistar rat brain membranes after 120 mins by scintillation counting analysis. In kind it is cell membranes, Membrane. For orientation: Loss of bound radioactivity is the signal in a displacement assay; it reports binding, not function.

The subject of data set [8] is Mus musculus. As to the kind of experiment: Antinociceptive activity in CD1 mouse assessed as maximal possible effect by measuring inhibition of jumping behavior at 10 mg/kg, ip after 15 mins by hot plate assay relative to control. It is filed as functional.
Data set [9] deals with Kappa-type opioid receptor (Cavia porcellus, UniProt P41144). As to the kind of experiment: Displacement of [3H]nor-BNI from kappa opioid receptor in guinea pig brain membranes after 120 mins by scintillation counting analysis. It is filed as cell membranes, Membrane.
Kappa-type opioid receptor (Cavia porcellus, UniProt P41144), sequence (P41144 whole entry): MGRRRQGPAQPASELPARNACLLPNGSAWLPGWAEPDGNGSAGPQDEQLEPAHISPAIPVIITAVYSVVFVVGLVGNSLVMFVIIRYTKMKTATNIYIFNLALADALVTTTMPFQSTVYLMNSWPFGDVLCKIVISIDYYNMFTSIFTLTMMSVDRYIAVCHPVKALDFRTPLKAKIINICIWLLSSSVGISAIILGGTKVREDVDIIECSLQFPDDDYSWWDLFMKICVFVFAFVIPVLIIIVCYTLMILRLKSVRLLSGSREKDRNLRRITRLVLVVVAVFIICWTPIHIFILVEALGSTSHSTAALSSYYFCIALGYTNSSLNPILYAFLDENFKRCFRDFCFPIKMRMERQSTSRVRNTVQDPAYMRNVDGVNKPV
Data set [10] has as its system Mus musculus. As to the kind of experiment: Antinociceptive activity in CD1 mouse assessed as inhibition of jumping behavior at 100 ng, icv after 10 mins by hot plate assay in presence of mu opioid receptor antagonist beta-FNA. In kind it is functional, organism-based.
The target of data set [11] is T1, Delta-type opioid receptor. As to the kind of experiment: Intrinsic activity at human recombinant delta opioid receptor expressed in CHO cells co-expressing Galphaq66Di5 assessed as efficacy ratio by measuring stimulation of calcium release by Fluo-4 AM dye-based fluorescence assay relative to DPDPE. It is filed as functional, cell-based.
Data set [12] has as its system Mus musculus. As to the kind of experiment: Antinociceptive activity in icv dosed CD1 mouse assessed as inhibition of jumping behavior after 10 mins by hot plate assay. It is filed as functional, organism-based.
The target of data set [13] is Mu-type opioid receptor (Rattus norvegicus, UniProt P33535). As to the kind of experiment: Displacement of [3H]DAMGO from mu opioid receptor in Wistar rat brain membranes after 120 mins by scintillation counting analysis. It is filed as cell membranes, Membrane.
Mu-type opioid receptor (Rattus norvegicus, UniProt P33535), sequence (P33535 whole entry): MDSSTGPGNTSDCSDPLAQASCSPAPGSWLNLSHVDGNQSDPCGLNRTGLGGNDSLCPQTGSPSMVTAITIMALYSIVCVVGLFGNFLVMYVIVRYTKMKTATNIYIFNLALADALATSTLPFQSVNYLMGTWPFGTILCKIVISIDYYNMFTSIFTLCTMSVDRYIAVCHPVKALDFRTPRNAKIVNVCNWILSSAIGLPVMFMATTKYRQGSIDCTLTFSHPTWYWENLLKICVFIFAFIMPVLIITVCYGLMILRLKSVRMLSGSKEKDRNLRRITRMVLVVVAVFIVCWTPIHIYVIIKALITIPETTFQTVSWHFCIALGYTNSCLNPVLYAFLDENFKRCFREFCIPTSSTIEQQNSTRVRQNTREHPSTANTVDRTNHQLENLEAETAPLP
Data set [14] deals with T1, Delta-type opioid receptor. As to the kind of experiment: Agonist activity at human recombinant delta opioid receptor expressed in CHO cells co-expressing Galphaq66Di5 assessed as stimulation of calcium release up to 1 uM by Fluo-4 AM dye-based fluorescence assay. It is filed as functional, cell-based.
For data set [15], the system named is Mus musculus. As to the kind of experiment: Antinociceptive activity in CD1 mouse assessed as inhibition of jumping behavior at 0.3 to 10 mg/kg, ip after 15 mins by hot plate assay. It is filed as functional, organism-based.
The target in data set [16] is T2, Mu-type opioid receptor. As to the kind of experiment: Agonist activity at human recombinant mu opioid receptor expressed in CHO cells co-expressing C-terminally modified Galphaqi5 assessed as stimulation of calcium release up to 1 uM by Fluo-4 AM dye-based fluorescence assay. In kind it is functional, cell-based.

T3 sequence (P41145 whole entry): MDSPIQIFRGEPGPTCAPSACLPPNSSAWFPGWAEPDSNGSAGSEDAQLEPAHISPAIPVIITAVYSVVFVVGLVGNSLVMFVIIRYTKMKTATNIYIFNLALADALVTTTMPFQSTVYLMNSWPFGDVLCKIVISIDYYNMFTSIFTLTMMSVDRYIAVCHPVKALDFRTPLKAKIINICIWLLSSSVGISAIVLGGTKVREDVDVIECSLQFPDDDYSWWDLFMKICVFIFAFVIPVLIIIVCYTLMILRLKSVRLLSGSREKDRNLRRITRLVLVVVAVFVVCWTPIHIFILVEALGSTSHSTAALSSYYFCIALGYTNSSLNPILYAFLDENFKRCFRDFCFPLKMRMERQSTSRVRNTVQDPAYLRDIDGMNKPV
Delta-type opioid receptor (Rattus norvegicus, UniProt P33533), sequence (P33533 whole entry): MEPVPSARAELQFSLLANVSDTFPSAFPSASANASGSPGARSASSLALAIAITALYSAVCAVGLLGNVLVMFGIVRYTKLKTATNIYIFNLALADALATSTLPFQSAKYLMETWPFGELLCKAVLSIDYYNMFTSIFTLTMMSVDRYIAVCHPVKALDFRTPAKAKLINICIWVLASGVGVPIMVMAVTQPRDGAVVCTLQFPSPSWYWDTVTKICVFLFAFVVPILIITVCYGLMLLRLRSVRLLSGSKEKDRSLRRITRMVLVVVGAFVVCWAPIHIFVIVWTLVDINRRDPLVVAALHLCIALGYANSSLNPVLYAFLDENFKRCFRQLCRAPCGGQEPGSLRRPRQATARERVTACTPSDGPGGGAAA
T2 sequence (P35372 whole entry): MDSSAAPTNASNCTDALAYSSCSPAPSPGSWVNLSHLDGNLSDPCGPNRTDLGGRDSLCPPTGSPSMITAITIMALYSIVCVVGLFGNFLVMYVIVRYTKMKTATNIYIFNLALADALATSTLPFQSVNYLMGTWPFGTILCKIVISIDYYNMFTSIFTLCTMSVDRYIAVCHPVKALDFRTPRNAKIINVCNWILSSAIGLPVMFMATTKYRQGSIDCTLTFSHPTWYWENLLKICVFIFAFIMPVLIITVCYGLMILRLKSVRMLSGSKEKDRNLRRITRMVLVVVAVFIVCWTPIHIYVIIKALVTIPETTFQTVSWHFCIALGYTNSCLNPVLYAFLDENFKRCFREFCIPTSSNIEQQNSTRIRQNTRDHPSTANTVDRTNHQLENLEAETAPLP

Take `Cc1cc(O)cc(C)c1C[C@H](N)C(=O)N[C@@H]1CCCCNC(=O)C[C@@H](C(N)=O)NC(=O)[C@H](Cc2ccc(F)cc2F)NC(=O)[C@H](Cc2ccccc2)NC1=O`: the remaining at 1.5 h, 500 µM in data set [1] was found to be 97%. Moreover, the EC50 (in general, the concentration giving half of the maximal effect) is 8.71 nM in data set [2], 1.66 nM at Mu-type opioid receptor [3] and 1.35 nM in data set [5]. Besides, the Ratio in data set [4] was 0.82; in [11], 0.37. Further, the inhibition result in the data set on Mus musculus [6] was “Active”. In addition, the values for the IC50 (in data set [7]; in data set [9]; on Mu-type opioid receptor [13]) were 11.2 nM, 0.3 nM and 0.49 nM, respectively. Besides, in the data set with Mus musculus [8], the MPE stood at 84%. Besides, in the data set with Mus musculus [10], the inhibition result was “inactive”. Moreover, the inhibition entry with Mus musculus [12] was “Dose-dependent effect”.
As for `Cc1cc(O)cc(C)c1C[C@H](N)C(=O)N[C@@H]1CCCCNC(=O)C[C@@H](C(N)=O)NC(=O)[C@H](Cc2ccccc2)NC(=O)[C@H](Cc2ccc(F)cc2)NC1=O`, the remaining at 1.5 h, 500 µM in [1] is 96%. The outcome in data set [14] was inactive. Besides, the EC50 at Mu-type opioid receptor [3] was 2.51 nM; in [5] it was 4.79 nM. Further, in data set [4], the Ratio came out at 0.79. In addition, the results for the IC50 (in data set [7]; in [9]; at Mu-type opioid receptor [13]) were 280 nM, 2.4 nM and 0.55 nM, respectively.
`Cc1cc(O)cc(C)c1C[C@H](N)C(=O)N[C@@H]1CCCCNC(=O)C[C@@H](C(N)=O)NC(=O)[C@H](Cc2ccc(F)cc2)NC(=O)[C@H](Cc2ccccc2)NC1=O`: the remaining at 1.5 h, 500 µM in data set [1] worked out at 93%. For the same compound, the EC50 in [2] was 33.9 nM; on Mu-type opioid receptor [3], 2.75 nM; in data set [5] it was 2.24 nM. For the same compound, the results for the Ratio in data set [4] and in [11] were 0.71 and 0.21, respectively. In addition, the inhibition result with Mus musculus [6] and in the data set with Mus musculus [15] was “Active” throughout. In addition, the IC50 (commonly the midpoint of a concentration-inhibition curve) in data set [7] came out at 168 nM; in data set [9], 0.55 nM; on Mu-type opioid receptor [13] it was 0.61 nM. Moreover, in the data set on Mus musculus [10], the inhibition result was “inactive”. Also, the inhibition result in the data set with Mus musculus [12] is “Dose-dependent effect”.
`NC(=O)[C@@H]1CC(=O)NCCCC[C@@H](NC(=O)[C@@H](N)Cc2ccc(O)cc2)C(=O)N[C@@H](Cc2ccccc2)C(=O)N[C@@H](Cc2ccc(F)cc2F)C(=O)N1`: the remaining at 1.5 h, 500 µM in data set [1] is 94%. The EC50 is 126 nM in data set [2], 6.31 nM on Mu-type opioid receptor [3] and 4.9 nM in [5]. For the same compound, the Ratio in data set [4] came to 0.78; in data set [11], 0.5. The IC50 amounted to 110 nM in [7], 0.9 nM in data set [9] and 0.42 nM at Mu-type opioid receptor [13].
In the case of `NC(=O)[C@@H]1CC(=O)NCCCC[C@@H](NC(=O)[C@@H](N)Cc2ccc(O)cc2)C(=O)N[C@@H](Cc2ccc(F)cc2)C(=O)N[C@@H](Cc2ccccc2)C(=O)N1`, the remaining at 1.5 h, 500 µM in data set [1] amounted to 96%. Besides, the EC50 in data set [2] is 457 nM; at Mu-type opioid receptor [3] it was 2.57 nM; in [5], 10 nM. In addition, the Ratio in [4] was 0.89; in data set [11] it was 0.14. Also, the IC50 in data set [7] turned out to be 348 nM; in data set [9] it was 2.43 nM; at Mu-type opioid receptor [13], 0.72 nM.
`Cc1cc(O)cc(C)c1C[C@H](N)C(=O)N[C@@H]1CCCCNC(=O)C[C@@H](C(N)=O)NC(=O)[C@H](Cc2ccccc2)NC(=O)[C@H](Cc2ccc(C(F)(F)F)cc2)NC1=O`: the remaining at 1.5 h, 500 µM in data set [1] stood at 96%. The EC50 in data set [2] is 9.33 nM. Besides, the outcome at Mu-type opioid receptor [16] was inactive. The figures for the IC50 (in data set [7]; in data set [9]; on Mu-type opioid receptor [13]) were greater than 1000 nM, 6.4 nM and greater than 1000 nM, respectively. Moreover, in data set [11], the Ratio was found to be 0.28.
As for `Cc1cc(O)cc(C)c1C[C@H](N)C(=O)N[C@@H]1CCCCNC(=O)C[C@@H](C(N)=O)NC(=O)[C@H](Cc2ccc(C(F)(F)F)cc2)NC(=O)[C@H](Cc2ccccc2)NC1=O` (H-[Dmt][dK]F[Phe(4-CF3)]D-NH2; lactam 2-5), the remaining at 1.5 h, 500 µM in [1] was found to be 93%. Further, in data set [14], the result was inactive. The figures for the EC50 (on Mu-type opioid receptor [3]; in [5]) were 6.76 nM and 3.63 nM, respectively. Further, the Ratio in [4] is 0.6. For the same compound, the IC50 in data set [7] was greater than 1000 nM; in data set [9], 1.15 nM; on Mu-type opioid receptor [13], 0.92 nM.
As to `NC(=O)[C@@H]1CC(=O)NCCCC[C@@H](NC(=O)[C@@H](N)Cc2ccc(O)cc2)C(=O)N[C@@H](Cc2ccc(C(F)(F)F)cc2)C(=O)N[C@@H](Cc2ccccc2)C(=O)N1`, the remaining at 1.5 h, 500 µM in data set [1] is 97%. The result (in [14]; on Mu-type opioid receptor [16]) was inactive. The Ratio in data set [4] came out at 0.7. Moreover, the EC50 in [5] was 72.4 nM. Also, the IC50 in [7] was greater than 1000 nM; in data set [9] it was 24.5 nM; on Mu-type opioid receptor [13] it was greater than 1000 nM.
For the compound `NC(=O)[C@@H]1CC(=O)NCCCC[C@@H](NC(=O)[C@@H](N)Cc2ccc(O)cc2)C(=O)N[C@@H](Cc2ccccc2)C(=O)N[C@@H](Cc2ccc(C(F)(F)F)cc2)C(=O)N1`, in data set [1], the remaining at 1.5 h, 500 µM is 97%. Moreover, the values for the EC50 (in data set [2]; on Mu-type opioid receptor [3]; in [5]) were 162 nM, 5.25 nM and 11.7 nM, respectively. The Ratio in data set [4] is 0.78; in data set [11], 0.27. The IC50 in [7] worked out at 429 nM; in [9], 1.5 nM; at Mu-type opioid receptor [13], 1.6 nM.
For `NC(=O)[C@H](Cc1ccccc1)NC(=O)[C@H](Cc1ccccc1)NC(=O)[C@@H]1CCCN1C(=O)[C@@H](N)Cc1ccc(O)cc1` [ENDOMORPHIN 2], the remaining at 1.5 h, 500 µM in data set [1] turned out to be 0.61%.
With `Cc1cc(O)cc(C)c1C[C@H](N)C(=O)N[C@@H]1CCCCNC(=O)C[C@@H](C(N)=O)NC(=O)[C@H](Cc2ccccc2)NC(=O)[C@H](Cc2ccc(F)cc2F)NC1=O`, in [1], the remaining at 1.5 h, 500 µM is 94%. The EC50 on Mu-type opioid receptor [3] is 5.13 nM; in [5], 2.82 nM. Also, the Ratio in data set [4] is 0.65. Further, the IC50 in data set [7] is 342 nM; in data set [9], 0.6 nM; at Mu-type opioid receptor [13], 0.54 nM.
As for `NC(=O)[C@@H]1CC(=O)NCCCC[C@@H](NC(=O)[C@@H](N)Cc2ccc(O)cc2)C(=O)N[C@@H](Cc2ccc(F)cc2F)C(=O)N[C@@H](Cc2ccccc2)C(=O)N1`, the remaining at 1.5 h, 500 µM in data set [1] came to 93%. In addition, in data set [14], the outcome was inactive. For the same compound, the 50% effective concentration (EC50) is 4.07 nM at Mu-type opioid receptor [3] and 7.59 nM in data set [5]. Further, the Ratio in data set [4] is 0.78. Moreover, the figures for the IC50 (in data set [7]; in data set [9]; on Mu-type opioid receptor [13]) were greater than 1000 nM, 3.26 nM and 0.69 nM, respectively.
Regarding `NC(=O)[C@@H]1CC(=O)NCCCC[C@@H](NC(=O)[C@@H](N)Cc2ccc(O)cc2)C(=O)N[C@@H](Cc2ccccc2)C(=O)N[C@@H](Cc2ccc(F)cc2)C(=O)N1`, the remaining at 1.5 h, 500 µM in data set [1] is 93%. The EC50 is 51.3 nM in [2], 3.24 nM on Mu-type opioid receptor [3] and 1.05 nM in data set [5]. Also, the Ratio amounted to 0.88 in data set [4] and 0.2 in data set [11]. In addition, the IC50 in [7] is 286 nM; in data set [9], 0.6 nM; on Mu-type opioid receptor [13], 0.98 nM.
